According to publication PMC3703951 (Bioorganic & medicinal chemistry letters, 2013):

Assays:
[1] = tested on: human alkaline phosphatase; assay: Selectivity: inhibition of alkaline phosphatase; assay type: biochemical; details: selectivity panel
human microsomal EH = target: T1, human microsomal EH (Homo sapiens, UniProt P07099); assay: Selectivity: inhibition of microsomal EH; assay type: biochemical; details: selectivity panel
T1 sequence (P07099 1-455): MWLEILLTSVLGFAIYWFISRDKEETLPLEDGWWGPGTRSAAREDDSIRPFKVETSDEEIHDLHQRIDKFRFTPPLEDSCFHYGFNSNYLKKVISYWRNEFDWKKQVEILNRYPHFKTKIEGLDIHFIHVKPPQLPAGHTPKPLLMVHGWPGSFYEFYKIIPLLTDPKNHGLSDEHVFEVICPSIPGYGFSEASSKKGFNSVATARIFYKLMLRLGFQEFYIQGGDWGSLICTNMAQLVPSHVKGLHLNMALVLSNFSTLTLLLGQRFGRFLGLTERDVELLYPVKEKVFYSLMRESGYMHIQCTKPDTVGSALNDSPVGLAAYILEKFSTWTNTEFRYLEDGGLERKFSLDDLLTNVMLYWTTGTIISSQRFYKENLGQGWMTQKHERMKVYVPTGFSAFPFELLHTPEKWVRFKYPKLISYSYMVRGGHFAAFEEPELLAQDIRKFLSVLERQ

human sEH = target: T2, human sEH (Homo sapiens, UniProt P34913); assay: Reversibility of inhibition: incubation with inhibitor, then dialysis; assay type: biochemical; details: 20 nM human sEH incubated with 10 μM inhibitor for 15 min, then dialyzed
T2 sequence (P34913 1-555): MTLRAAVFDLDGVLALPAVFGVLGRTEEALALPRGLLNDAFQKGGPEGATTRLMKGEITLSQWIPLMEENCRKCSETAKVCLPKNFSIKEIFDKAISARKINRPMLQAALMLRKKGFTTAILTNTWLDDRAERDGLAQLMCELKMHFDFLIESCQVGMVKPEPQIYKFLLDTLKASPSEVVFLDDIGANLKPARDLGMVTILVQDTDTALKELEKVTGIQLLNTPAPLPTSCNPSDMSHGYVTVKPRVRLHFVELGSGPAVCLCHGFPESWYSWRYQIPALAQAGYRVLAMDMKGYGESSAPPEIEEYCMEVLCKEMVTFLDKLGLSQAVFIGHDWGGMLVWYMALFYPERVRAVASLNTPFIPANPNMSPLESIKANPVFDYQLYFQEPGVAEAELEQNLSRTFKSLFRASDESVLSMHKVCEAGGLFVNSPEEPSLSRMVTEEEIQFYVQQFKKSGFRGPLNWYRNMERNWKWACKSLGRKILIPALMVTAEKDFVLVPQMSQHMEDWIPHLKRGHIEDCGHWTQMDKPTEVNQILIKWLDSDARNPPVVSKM

esterases and amidases = assay: Selectivity: inhibition of a series of esterases and amidases; assay type: biochemical; details: selectivity panel
[2] = human, cited from earlier work
sEH-phosphatase activity = target: T3, sEH-phosphatase activity (Homo sapiens, UniProt P34913); assay: Selectivity: inhibition of sEH-phosphatase activity; assay type: biochemical; details: selectivity panel
T3 sequence (P34913 1-555): T2 sequence (P34913 1-555)

For `C[C@]12CC[C@@H]3c4ccc(O)cc4C[C@@H](CCCCCCCCC[S+]([O-])CCCC(F)(F)C(F)(F)F)[C@H]3[C@@H]1CC[C@@H]2O` (stereo partly shown) [fulvestrant], the “Inhibition of human alkaline phosphatase” value [1] was “only inhibit the sEH”, the “Inhibition of human microsomal EH” value (human microsomal EH) was “only inhibit the sEH” and the “sEH activity recovered after dialysis” value (human sEH) was “more than 80%”. For the same compound, the “Inhibition of a series of esterases and amidases” value (esterases and amidases) was “only inhibit the sEH”, the Stability in humans [2] was “very stable” and the Blood concentration ([2]; for several weeks following intramuscular treatment) was “around 10 nM”. The “Inhibition of sEH-phosphatase activity” value (sEH-phosphatase activity) was “only inhibit the sEH”.
